# Test results reported in patent US20110207744A1, “Method for treating cognitive deficits” (H. Lundbeck A/S, priority 2008, published 2011).
# How the values were obtained:
# α1 adrenoceptors = settings: WO 2005/016900; cited from earlier work
# [1] = test system: sub-chronic PCP treated rats; test: novel object recognition (NOR) test in sub-chronic PCP treated rats; type: in vivo, rat
# Method: The NOR test was performed as described in the above cited reference (Grayson 2007).
# Acquisition trial. […] Data are expressed as mean±s.e.m. (n=9-10 per group) and were analysed by ANOVA and post-hoc student's t-test.
# Retention trial. […] Data are expressed as mean±s.e.m. (n=9-10 per group) and were analysed by ANOVA and post-hoc student's t-test.
# Data are expressed as the mean±s.e.m. (n=9-10 per group) and were analysed using ANOVA followed by post-hoc Dunnett's t-test.
# Locomotor activity. […] Data are expressed as mean±s.e.m (n=9-10 per group) and were analysed by ANOVA and post-hoc Dunnett's t-test.
# dopamine D1 receptors = dopamine D1 receptors (Homo sapiens, UniProt P21728); settings: WO 2005/016900; cited from earlier work
# Sequence of dopamine D1 receptors (P21728 whole entry): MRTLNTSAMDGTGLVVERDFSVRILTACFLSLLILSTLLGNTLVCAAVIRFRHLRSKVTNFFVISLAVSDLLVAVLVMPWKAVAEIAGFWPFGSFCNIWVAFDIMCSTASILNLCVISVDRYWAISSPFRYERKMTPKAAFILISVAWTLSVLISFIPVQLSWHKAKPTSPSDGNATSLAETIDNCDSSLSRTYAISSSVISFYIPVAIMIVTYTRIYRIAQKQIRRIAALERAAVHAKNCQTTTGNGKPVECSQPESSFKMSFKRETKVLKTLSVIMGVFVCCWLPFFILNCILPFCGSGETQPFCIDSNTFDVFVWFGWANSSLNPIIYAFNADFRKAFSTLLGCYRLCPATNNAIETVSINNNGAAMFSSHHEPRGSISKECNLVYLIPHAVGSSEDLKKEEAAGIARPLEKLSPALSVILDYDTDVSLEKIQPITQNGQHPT
# D1 receptor = D1 receptor (Homo sapiens, UniProt P21728); test: PET study, D1 receptor occupancy (11C-SCH23390 tracer); type: in vivo; settings: healthy subjects, read-out: D1 receptor occupancy in putamen
# Sequence of D1 receptor (P21728 whole entry): as above
# 5-HT2 receptor = settings: WO 2005/016900; cited from earlier work
# rats = test: condition avoidance response (CAR) model; type: in vivo, rat; settings: at very low levels of D2 receptor occupancy
# From the text: The compound of formula I is a putative antipsychotic compound with affinity for both dopamine D1 and D2 receptors.
# [2] = test system: subchronic PCP treated rats; test: attentional set-shifting in subchronic PCP rat disease model (executive functioning); type: in vivo; settings: for EDS discrimination performance (trials to criterion) vs PCP+vehicle group: 30 min before test
# From the text: The attentional set-shifting paradigm is an animal model which allows assessment of executive functioning via intra-dimensional (ID) versus extra-dimensional (ED) shift discrimination learning. A schizophrenia-disease-like animal model with subchronic phencyclidine (PCP) administration plus washout period is applied.
# Accordingly, the cognitive enhancing properties of a compound can be investigated by testing whether the compound is attenuating the “attentional performance impairment” induced by subchronic PCP administration in rats.
# Methodology. In vivo assessment of “attentional set-shifting performance” was conducted as described by Rodefer et al. (Eur. J. Neurosci. 21:1070-1076 (2005)), and was based on a modified version of the task designed by Birrell & Brown (J. Neurosci. 20:4320-4324 (2000)). Briefly, Male Long-Evans rats (Harlan, Indianapolis, Ind.) weighing approximately 250 g at the beginning of the study in four groups (n=12 each group) were used. After habituating to the colony room environment, rats received a series of subchronic injections of PCP (5 mg/kg, i.p.) or saline twice daily for 7 days, followed by a washout period of 10 days before beginning the set-shifting procedure in which animals were required to dig in a pot to retrieve a food reward (half of a Honey Nut Cheerio® (General Mills, Minneapolis, Minn., USA)) using either digging medium or scented odor as the dimensional cue. The test chamber was a Plexiglas® box (50×37.5×25 cm) with an opaque barrier separating one-third of the box from the rest (along the long axis of the box). […]
# Habituation was performed for several days before testing; a pot filled with wood chip bedding used in the rats' home cages and baited with several Cheerios® was placed in each rat's cage, to accustom them to retrieving food rewards from the pots. […] The rats therefore could investigate the digging medium with paws or snout before executing a “dig” response, and these choices were not scored. […]
# dopamine D2 receptors = dopamine D2 receptors (Homo sapiens, UniProt P14416); settings: WO 2005/016900; cited from earlier work
# Sequence of dopamine D2 receptors (P14416 whole entry): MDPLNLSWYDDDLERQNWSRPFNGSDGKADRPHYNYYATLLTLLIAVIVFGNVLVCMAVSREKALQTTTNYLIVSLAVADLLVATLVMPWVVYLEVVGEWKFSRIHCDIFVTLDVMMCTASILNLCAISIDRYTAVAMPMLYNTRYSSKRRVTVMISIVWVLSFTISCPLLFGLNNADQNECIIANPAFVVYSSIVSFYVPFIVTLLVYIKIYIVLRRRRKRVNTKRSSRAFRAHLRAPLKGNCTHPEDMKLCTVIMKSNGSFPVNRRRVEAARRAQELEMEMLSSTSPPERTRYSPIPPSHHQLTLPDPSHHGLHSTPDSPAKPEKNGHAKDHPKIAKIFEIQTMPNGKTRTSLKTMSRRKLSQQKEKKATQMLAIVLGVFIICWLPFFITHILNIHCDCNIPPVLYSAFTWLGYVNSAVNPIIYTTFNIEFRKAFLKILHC
# D2 receptor = D2 receptor (Homo sapiens, UniProt P14416); test: PET study, D2 receptor occupancy (11C-raclopride tracer); type: in vivo; settings: healthy subjects, read-out: D2 receptor occupancy in the putamen
# Sequence of D2 receptor (P14416 whole entry): as above
# [3] = test system: subchronic PCP treated rats; settings: given acutely; Rodefer et al. (2008); cited from earlier work
# [4] = 2 mg/day given daily for 18 days
# [5] = 10 mg/day given daily for 18 days
structure (smiles),measurement,setting,value
"CN1CCN([C@@H]2C[C@@H](c3ccccc3)c3ccc(Cl)cc32)CC1(C)C [Compound I, trans-4-((1R,3S)-6-chloro-3-phenylindan-1-yl)-1,2,2-trimethylpiperazine]",affinity for α1 adrenoceptors,α1 adrenoceptors,high affinity
same,locomotor activity (total number of line crossings),"[1]; 2.5 mg/kg s.c., p<0.05 compared to vehicle",significantly reduced
same,"time spent exploring the identical objects, acquisition phase",[1]; acute 0.5-2.5 mg/kg s.c.,no significant difference
same,"sub-chronic PCP-induced impairment, novel vs familiar object exploration, retention phase","[1]; acute, all three doses 0.5, 1.25, 2.5 mg/kg s.c.",significantly attenuated
same,affinity for dopamine D1 receptors (antagonist),dopamine D1 receptors,high affinity
same,receptor occupancy at 2 mg,D1 receptor; [4],32%
same,receptor occupancy at 10 mg,D1 receptor; [5],69%
same,affinity for the 5-HT2 receptor (antagonist),5-HT2 receptor,high affinity
same,antipsychotic activity in CAR model,rats,possesses antipsychotic activity
same,EDS discrimination performance (trials to criterion) vs PCP+vehicle group,"[2]; 1.25 mg/kg s.c., t=3.09, p<0.05",significantly attenuated
same,EDS discrimination performance (trials to criterion) vs PCP+vehicle group,"[2]; 2.5 mg/kg s.c., t=3.80, p<0.01",significantly attenuated
same,behavior on all other discrimination problems,"[2]; 1.25 or 2.5 mg/kg s.c., all ps>0.05",No evidence was found that either dose of Compound I impacted behavior
same,affinity for dopamine D2 receptors (antagonist),dopamine D2 receptors,high affinity
same,receptor occupancy at 2 mg,D2 receptor; [4],11%
same,receptor occupancy at 10 mg,D2 receptor; [5],43%
"CN1CCN(C2=Nc3cc(Cl)ccc3Nc3ccccc32)CC1 [clozapine, reference compound]",PCP-induced reduction of discrimination index,[1]; 2.5 mg/kg i.p.,no significant effect
O=C(CCCN1CCC(O)(c2ccc(Cl)cc2)CC1)c1ccc(F)cc1 [haloperidol],reversing PCP-disrupted attentional performance,[3],ineffective
Cc1nc2n(c(=O)c1CCN1CCC(c3noc4cc(F)ccc34)CC1)CCCC2 [risperidone],reversing PCP-disrupted attentional performance,[3],ineffective
